Test results from PubChem BioAssay (NCI).
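The compound was tested at five concentrations on cells cultured in 96-well plates, with a 48-hour exposure period. TGI: concentration producing complete growth inhibition.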

Key:
Assay in all cases: DTP human tumour cell line panel, 48 h
NCI-H460 lung = test system: NCI-H460 lung
MALME-3M melanoma = test system: MALME-3M melanoma
T-47D breast = test system: T-47D breast
SN12C renal = test system: SN12C renal
NCI/ADR-RES ovarian = test system: NCI/ADR-RES ovarian
HCT-116 colon = test system: HCT-116 colon
OVCAR-3 ovarian = test system: OVCAR-3 ovarian
UACC-257 melanoma = test system: UACC-257 melanoma
SW-620 colon = test system: SW-620 colon
HL-60(TB) leukemia = test system: HL-60(TB) leukemia
SK-MEL-2 melanoma = test system: SK-MEL-2 melanoma
SK-MEL-28 melanoma = test system: SK-MEL-28 melanoma
SF-295 CNS = test system: SF-295 CNS
CAKI-1 renal = test system: CAKI-1 renal
HCC-2998 colon = test system: HCC-2998 colon
UACC-62 melanoma = test system: UACC-62 melanoma
SR leukemia = test system: SR leukemia
RXF 393 renal = test system: RXF 393 renal

Row | SMILES | TGI (NCI-H460 lung) [µM] | TGI (MALME-3M melanoma) [µM] | TGI (T-47D breast) [µM] | TGI (SN12C renal) [µM] | TGI (NCI/ADR-RES ovarian) [µM] | TGI (HCT-116 colon) [µM] | TGI (OVCAR-3 ovarian) [µM] | TGI (UACC-257 melanoma) [µM] | TGI (SW-620 colon) [µM] | TGI (HL-60(TB) leukemia) [µM] | TGI (SK-MEL-2 melanoma) [µM] | TGI (SK-MEL-28 melanoma) [µM] | TGI (SF-295 CNS) [µM] | TGI (CAKI-1 renal) [µM] | TGI (HCC-2998 colon) [µM] | TGI (UACC-62 melanoma) [µM] | TGI (SR leukemia) [µM] | TGI (RXF 393 renal) [µM]
1 | CC(C)NC(NC(C)C)=C(S(=O)(=O)C(F)(F)C(F)(F)C(F)(F)C(F)(F)F)S(=O)(=O)C(F)(F)C(F)(F)C(F)(F)C(F)(F)F | > 100 | > 100 | > 100 | > 100 | > 100 | > 100 | > 100 | > 100 | > 100 | > 100 | > 100 | > 100 | > 100 | > 100 | > 100 | > 100 | > 100 | –
2 | COC(=O)/C=C(/C=C1/C(C#N)=C(N)N(c2ccc(Cl)cc2)C1(C)/C(=C/C(=O)OC)C(=O)OC)C(=O)OC (centres undefined) | > 100 | > 100 | > 100 | > 100 | > 100 | > 100 | > 100 | > 100 | > 100 | 41.8 | > 100 | > 100 | > 100 | > 100 | > 100 | > 100 | > 100 | –
3 | O=C1CCC2(c3ccccc3)Nc3ccncc3N12 (centres undefined) | > 10 | > 10 | > 10 | > 10 | > 10 | > 10 | > 10 | > 10 | > 10 | > 10 | > 10 | – | > 10 | – | – | > 10 | > 10 | –
4 | COc1ccc2c(c1)-c1nc(=S)n(CCCN(C)C)c3ccc([N+](=O)[O-])c(c13)N2 | 10.3 | 2.33 | 40.8 | 10.3 | 9.23 | 2.93 | 18.5 | 3.6 | 7.18 | 1.64 | 31.6 | 2.81 | 21.2 | 19.8 | 18.6 | 25.9 | – | 1.87
5 | CO/C(N)=C(\C#N)N=Cc1ccco1 | – | > 100 | > 100 | > 100 | > 100 | > 100 | > 100 | > 100 | > 100 | > 100 | > 100 | > 100 | > 100 | > 100 | > 100 | > 100 | – | > 100
6 | CCC(C)(C)C1CCC2c3c([nH]c4ccccc34)C3C(=O)N(c4ccc(OC)cc4)C(=O)C3C2C1 (centres undefined) | > 100 | 63 | 38.4 | 6.67 | 44.4 | 37.2 | 7.28 | > 100 | > 100 | – | 40.3 | > 100 | 64.2 | 22.7 | 40.5 | > 100 | 75.3 | > 100
7 | CC(C)(C)C(=O)OCOP(=O)(OCOC(=O)C(C)(C)C)OCC1OC(n2ccc(=O)[nH]c2=O)C(N=[N+]=[N-])C1O (centres undefined) | 12.1 | 1.57 | 11.7 | 22 | 23.5 | 12 | 3.25 | 18.1 | 18.2 | 4.84 | – | 24 | 25.4 | 22.5 | 13.4 | 14.6 | – | 7.07
8 | CCOC(=O)CCCNC(=O)CCCCC(=O)N(C)C | > 100 | > 100 | > 100 | > 100 | > 100 | > 100 | > 100 | > 100 | > 100 | > 100 | > 100 | > 100 | > 100 | > 100 | > 100 | > 100 | – | –
9 | COC(=O)c1cc(C)ccc1C1CN=NC12Cc1ccc(C)cc1C2=O (centres undefined) | > 100 | > 100 | > 100 | > 100 | > 100 | > 100 | > 100 | > 100 | > 100 | 37.5 | > 100 | > 100 | > 100 | > 100 | > 100 | > 100 | – | > 100
10 | O=c1cc(N2CCNCC2)nc2ccccn12 | – | > 100 | > 100 | > 100 | > 100 | > 100 | > 100 | > 100 | > 100 | > 100 | > 100 | – | > 100 | > 100 | > 100 | > 100 | – | > 100
11 | COC(=O)CC(c1cn(S(=O)(=O)c2ccc(C)cc2)c2ccccc12)C1C[C@@H](C(=O)OC)N(C(=O)OC(C)(C)C)C1=O (some centres undefined) | > 100 | > 100 | > 100 | > 100 | > 100 | > 100 | > 100 | > 100 | > 100 | > 100 | > 100 | > 100 | > 100 | > 100 | – | > 100 | 10.4 | > 100
12 | O=S(=O)(SC1=NCCN1)c1ccc2ccccc2c1 | 42.8 | > 100 | > 100 | 68.9 | 51.8 | 62.4 | 97.2 | > 100 | 43.6 | 38.4 | 80 | > 100 | 65.8 | > 100 | 38.7 | > 100 | – | > 100
13 | CCOC(=O)c1c(NC(=O)c2cccs2)sc2c1CCC2 | > 100 | – | > 100 | > 100 | > 100 | > 100 | > 100 | > 100 | – | > 100 | > 100 | – | > 100 | > 100 | – | > 100 | > 100 | > 100
14 | CC(C)(C)/C(=N\Nc1nc2ccccc2[nH]1)c1ccccn1 | > 100 | 61.5 | > 100 | > 100 | > 100 | 78 | 73.3 | > 100 | > 100 | – | > 100 | > 100 | – | > 100 | – | > 100 | > 100 | > 100
15 | OC1(c2ccc(Cl)cc2)C(N2CCCC2)c2ccccc2C2=NCCN21 (centres undefined) | > 100 | 36.9 | 41 | > 100 | 59.9 | 46.6 | > 100 | 40.6 | > 100 | 50.7 | 45 | 31.9 | 30.9 | 94.6 | – | 41.3 | 41.1 | 91.9
16 | COC(=O)c1cc2c(cc1CC1Cc3cc4c(cc3C1=O)CCC4)CCC2 (centres undefined) | > 100 | > 100 | > 100 | > 100 | > 100 | > 100 | > 100 | > 100 | > 100 | > 100 | > 100 | > 100 | 89.2 | > 100 | > 100 | > 100 | > 100 | –
17 | O=C(O)C1CCCN(CCc2c[nH]c3ccccc23)C1 (centres undefined) | > 100 | > 100 | > 100 | > 100 | > 100 | > 100 | > 100 | > 100 | > 100 | > 100 | > 100 | > 100 | > 100 | > 100 | > 100 | > 100 | – | > 100
18 | C/C(Cl)=N/OC(=O)Nc1ccc(S(N)(=O)=O)c(C)c1 | > 100 | 4.5 | 9.98 | 26.8 | > 55.5 | 25 | 8.9 | 27.9 | 3.27 | 3.05 | 33.5 | 30.6 | 45.3 | 3.23 | 32.7 | 35.6 | – | 31.9
19 | COC(=O)C1=C(O)C(C(=O)OC)[C@]2(O)[C@H](C(=O)OC)[C@H]1C[C@@H](c1ccc(OC)c(OC)c1)[C@H]2C(=O)OC (some centres undefined) | 42.1 | – | > 100 | > 100 | 54.5 | > 100 | 62.5 | > 100 | > 100 | 62.9 | 99.4 | 90.7 | 94.7 | > 100 | 27.1 | > 100 | 46.6 | 48.4
20 | Cc1ccc([N+](=O)[O-])cc1S(=O)(=O)Nc1ccc(C2=NN(c3ccc([N+](=O)[O-])cc3[N+](=O)[O-])C(c3cccs3)C2)cc1 (centres undefined) | – | 94.7 | > 100 | 34.1 | 41.4 | 29.3 | 34.4 | 42.1 | > 100 | 62.9 | 32.7 | > 100 | > 100 | > 100 | – | – | 58.6 | 54.3
21 | CC(=O)Oc1cc(Cl)c(C)c2c1[C@H]1CC[C@]3(C)[C@@H](OC(C)=O)CC[C@H]3[C@@H]1CC2 | > 100 | > 100 | > 100 | > 100 | > 100 | > 100 | > 100 | > 100 | > 100 | > 100 | – | > 100 | > 100 | – | > 100 | > 100 | – | > 100
22 | C=C1[C@H](OC(C)=O)[C@H]2[C@@H](OC(C)=O)[C@@H](C)C[C@]2(C)C(=O)[C@H](C)/C=C/C(C)(C)C(=O)[C@H](OCC(C)C)[C@H]1OC(C)=O | > 25 | – | > 25 | > 25 | > 25 | > 25 | > 25 | > 25 | > 25 | > 25 | > 25 | – | > 25 | > 25 | > 25 | > 25 | > 25 | > 25
23 | O=c1c2ccccc2[nH]c2c(Cl)cc(Cl)c(NC3CCCCC3)c12 | – | – | > 100 | 55.3 | 44 | > 100 | 28 | 69.5 | 49 | 43.9 | 41.9 | > 100 | > 100 | 83.2 | 89.9 | 36.6 | > 100 | –
24 | c1ccc2c(c1)CC1=C(O2)c2ccccc2OC1 | – | > 100 | 67.9 | 37.4 | > 100 | 30.6 | 48.7 | > 100 | 42.2 | – | 70.3 | – | > 100 | 49.5 | 42.2 | 92.8 | > 100 | –
25 | COc1ccccc1NC(=S)Nc1cc(C)cc(C)n1 | > 100 | > 100 | > 100 | > 100 | > 100 | > 100 | > 100 | > 100 | > 100 | > 100 | > 100 | > 100 | > 100 | > 100 | > 100 | > 100 | – | > 100
26 | Cc1cc(C)c2c(O)c(S(=O)(=O)c3ccc(Cl)cc3)c(=O)oc2c1 | > 100 | > 100 | > 100 | > 100 | > 100 | > 100 | > 100 | > 100 | > 100 | > 100 | > 100 | > 100 | > 100 | > 100 | – | > 100 | > 100 | > 100
27 | Oc1c2cc(Cl)cc1COCc1cc(Cl)cc(c1O)COCc1cc(Cl)cc(c1O)COC2 | > 100 | – | > 100 | – | > 100 | > 100 | > 100 | > 100 | > 100 | 8.43 | > 100 | > 100 | > 100 | – | > 100 | > 100 | > 100 | > 100
